# Measurements: patent US6770596B1, “Fused tricyclic compounds, process for their preparation, and herbicidal compositions containing them” (Ishihara Sangyo Kaisha Ltd., priority 2002, dated 2004)
# Experiments:
# Assay type in all cases: in vivo
# [1] = system: sicklepod (Cassia obtusifolia, CAO); experiment: Pre-emerge test, sicklepod; conditions: 250 g ai/ha, 14 days after application, rating scale 0-100 (0 no damage, 100 complete death)
# Outline: (§1)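 Pots (10 cm, sandy loam mix) were seeded one day ahead of spraying. Test materials, dissolved in acetone, went on at 8–1000 g ai/ha in a 187 l/ha spray volume. Damage was scored 14 days later from 0 (none) to 100 (total kill).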
# [2] = system: common ragweed (Ambrosia artemisiifolia L., AML); experiment: Post-emerge test, common ragweed; conditions: 250 g ai/ha, 14 days after application, rating scale 0-100 (0 no damage, 100 complete death)
# Outline: (§2)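 Post-emergence spray, 8-1000 g ai/ha in acetone at 187 l/ha with 0.25% v/v non-ionic surfactant, applied to 2-3 leaf plants. Pots of sandy loam mix, greenhouse. Visual 0-100 injury rating at 14 DAT.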
# [3] = system: redroot pigweed (Amaranthus retroflexus, AMR); experiment: Post-emerge test, redroot pigweed; conditions: 250 g ai/ha, 14 days after application, rating scale 0-100 (0 no damage, 100 complete death)
# Outline: as §2
# [4] = system: green foxtail (Setaria viridis, SEV); experiment: Pre-emerge test, green foxtail; conditions: 250 g ai/ha, 14 days after application, rating scale 0-100 (0 no damage, 100 complete death)
# Outline: as §1
# [5] = system: wheat (Triticum aestivum); experiment: Pre-emerge test, crop damage wheat
# Outline: (§3)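 Using a track sprayer with flat fan nozzle, acetone solutions were applied at 8–1000 g ai/ha to sandy loam pots sown one day before. Plant injury was rated visually 0–100 after 14 days.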
# [6] = system: johnsongrass (Sorghum halepense, SOH); experiment: Post-emerge test, johnsongrass; conditions: 250 g ai/ha, 14 days after application, rating scale 0-100 (0 no damage, 100 complete death)
# Outline: as §2
# [7] = system: lambsquarters (Chenopodium album, CHA); experiment: Pre-emerge test, lambsquarters; conditions: 250 g ai/ha, 14 days after application, rating scale 0-100 (0 no damage, 100 complete death)
# Outline: as §1
# [8] = system: upland rice (Oryza sp., var.Tebonnet, RICE); experiment: Post-emerge test, crop damage upland rice
# Outline: as §2
# [9] = system: green foxtail (Setaria viridis, SEV); experiment: Post-emerge test, green foxtail; conditions: 250 g ai/ha, 14 days after application, rating scale 0-100 (0 no damage, 100 complete death)
# Outline: as §2
# [10] = system: field corn (Zea mays L., var. Dekalb 535, CORN); experiment: Pre-emerge test, crop damage field corn
# Outline: as §3
# [11] = system: field corn (Zea mays L., var. Dekalb 535, CORN); experiment: Post-emerge test, crop damage field corn
# Outline: as §2
# [12] = system: soybean (Glycine max L., var. Pella 86, SOY); experiment: Post-emerge test, crop damage soybean
# Outline: as §2
# [13] = system: velvetleaf (Abutilon theophrasti, ABT); experiment: Post-emerge test, velvetleaf; conditions: 250 g ai/ha, 14 days after application, rating scale 0-100 (0 no damage, 100 complete death)
# Outline: as §2
# [14] = system: common ragweed (Ambrosia artemisiifolia L., AML); experiment: Pre-emerge test, common ragweed; conditions: 250 g ai/ha, 14 days after application, rating scale 0-100 (0 no damage, 100 complete death)
# Outline: as §1
# [15] = system: ivyleaf morningglory (Ipomoea hederacea, IPH); experiment: Post-emerge test, ivyleaf morningglory; conditions: 250 g ai/ha, 14 days after application, rating scale 0-100 (0 no damage, 100 complete death)
# Outline: as §2
# [16] = system: velvetleaf (Abutilon theophrasti, ABT); experiment: Pre-emerge test, velvetleaf; conditions: 250 g ai/ha, 14 days after application, rating scale 0-100 (0 no damage, 100 complete death)
# Outline: as §1
# [17] = system: barnyardgrass (Echinachloa crus-galli, ECC); experiment: Pre-emerge test, barnyardgrass; conditions: 250 g ai/ha, 14 days after application, rating scale 0-100 (0 no damage, 100 complete death)
# Outline: as §1
# [18] = system: wheat (Triticum aestivum); experiment: Post-emerge test, crop damage wheat
# Outline: as §2
# [19] = system: sicklepod (Cassia obtusifolia, CAO); experiment: Post-emerge test, sicklepod; conditions: 250 g ai/ha, 14 days after application, rating scale 0-100 (0 no damage, 100 complete death)
# Outline: as §2
# [20] = system: johnsongrass (Sorghum halepense, SOH); experiment: Pre-emerge test, johnsongrass; conditions: 250 g ai/ha, 14 days after application, rating scale 0-100 (0 no damage, 100 complete death)
# Outline: as §1
# [21] = system: redroot pigweed (Amaranthus retroflexus, AMR); experiment: Pre-emerge test, redroot pigweed; conditions: 250 g ai/ha, 14 days after application, rating scale 0-100 (0 no damage, 100 complete death)
# Outline: as §1
# [22] = system: large crabgrass (Digitaria sanguinalis, DIS); experiment: Post-emerge test, large crabgrass; conditions: 250 g ai/ha, 14 days after application, rating scale 0-100 (0 no damage, 100 complete death)
# Outline: as §2
# [23] = system: cocklebur (Xanthium strumariunt, XAS); experiment: Pre-emerge test, cocklebur; conditions: 250 g ai/ha, 14 days after application, rating scale 0-100 (0 no damage, 100 complete death)
# Outline: as §1
# [24] = system: large crabgrass (Digitaria sanguinalis, DIS); experiment: Pre-emerge test, large crabgrass; conditions: 250 g ai/ha, 14 days after application, rating scale 0-100 (0 no damage, 100 complete death)
# Outline: as §1
# [25] = system: lambsquarters (Chenopodium album, CHA); experiment: Post-emerge test, lambsquarters; conditions: 250 g ai/ha, 14 days after application, rating scale 0-100 (0 no damage, 100 complete death)
# Outline: as §2
# [26] = system: upland rice (Oryza sp., var.Tebonnet, RICE); experiment: Pre-emerge test, crop damage upland rice
# Outline: as §3
# [27] = system: ivyleaf morningglory (Ipomoea hederacea, IPH); experiment: Pre-emerge test, ivyleaf morningglory; conditions: 250 g ai/ha, 14 days after application, rating scale 0-100 (0 no damage, 100 complete death)
# Outline: as §1
# [28] = system: barnyardgrass (Echinachloa crus-galli, ECC); experiment: Post-emerge test, barnyardgrass; conditions: 250 g ai/ha, 14 days after application, rating scale 0-100 (0 no damage, 100 complete death)
# Outline: as §2
# [29] = system: cocklebur (Xanthium strumariunt, XAS); experiment: Post-emerge test, cocklebur; conditions: 250 g ai/ha, 14 days after application, rating scale 0-100 (0 no damage, 100 complete death)
# Outline: as §2
# [30] = system: soybean (Glycine max L., var. Pella 86, SOY); experiment: Pre-emerge test, crop damage soybean
# Outline: as §3
# [31] = Triticum aestivum (wheat), in vivo, 14 days
# [32] = var. Tebonnet, Oryza sp. (upland rice), in vivo, 14 days
# [33] = var. Dekalb 535, Zea mays (field corn), in vivo, 14 days
# [34] = var. Pella 86, Glycine max (soybean), in vivo, 14 days
# [35] = pre-emerge, 250 g ai/ha, 14 days after application, rating scale 0-100 (0 no damage, 100 complete death)
# [36] = post-emerge, 250 g ai/ha, 14 days after application, rating scale 0-100 (0 no damage, 100 complete death)
SMILES,Pre-emerge Herbicidal Activity CAO (phytotoxicity rating) [1],Post-emerge Herbicidal Activity AML (phytotoxicity rating) [2],Post-emerge Herbicidal Activity AMR (phytotoxicity rating) [3],Pre-emerge Herbicidal Activity SEV (phytotoxicity rating) [4],Post-emerge Herbicidal Activity SOH (phytotoxicity rating) [6],Pre-emerge Herbicidal Activity CHA (phytotoxicity rating) [7],Post-emerge Herbicidal Activity SEV (phytotoxicity rating) [9],Post-emerge Herbicidal Activity ABT (phytotoxicity rating) [13],Pre-emerge Herbicidal Activity AML (phytotoxicity rating) [14],Post-emerge Herbicidal Activity IPH (phytotoxicity rating) [15],Pre-emerge Herbicidal Activity ABT (phytotoxicity rating) [16],Pre-emerge Herbicidal Activity ECC (phytotoxicity rating) [17],Post-emerge Herbicidal Activity CAO (phytotoxicity rating) [19],Pre-emerge Herbicidal Activity SOH (phytotoxicity rating) [20],Pre-emerge Herbicidal Activity AMR (phytotoxicity rating) [21],Post-emerge Herbicidal Activity DIS (phytotoxicity rating) [22],Pre-emerge Herbicidal Activity XAS (phytotoxicity rating) [23],Pre-emerge Herbicidal Activity DIS (phytotoxicity rating) [24],Post-emerge Herbicidal Activity CHA (phytotoxicity rating) [25],Pre-emerge Herbicidal Activity IPH (phytotoxicity rating) [27],further results
"Cn1nc(-c2c(F)cc3c4c2NC(=O)C(C)(C)N4C(=O)CO3)c(Cl)c1C(F)(F)F [1-15, 8-[4-Chloro-1-methyl-5-(trifluoromethyl)-1H-pyrazol-3-yl]-5,5-dimethyl-9-fluoro-5H-pyrazino[1,2,3-de]-1,4-benzoxazine-3,6(2H, 7H)-dione]",100,98,100,100,55,100,99,100,100,100,100,100,99,100,100,50,100,100,100,100,"Pre-emerge crop damage WHEAT (phytotoxicity rating) [5, 31]: 90; Post-emerge crop damage RICE (phytotoxicity rating) [8, 32]: 80; Pre-emerge crop damage CORN (phytotoxicity rating) [10, 33]: 60; Post-emerge crop damage CORN (phytotoxicity rating) [11, 33]: 35; Post-emerge crop damage SOY (phytotoxicity rating) [12, 34]: 100; Post-emerge crop damage WHEAT (phytotoxicity rating) [18, 31]: 50; Pre-emerge crop damage RICE (phytotoxicity rating) [26, 32]: 40; Post-emerge Herbicidal Activity ECC (phytotoxicity rating) [28]: 99; Post-emerge Herbicidal Activity XAS (phytotoxicity rating) [29]: 100; Pre-emerge crop damage SOY (phytotoxicity rating) [30, 34]: 50"
Cn1nc(-c2c(F)cc3c4c2NC(=O)C(c2ccccc2)N4C(=O)CO3)c(Cl)c1C(F)(F)F (stereo not drawn) [1-21],60,75,95,98,0,100,50,75,98,75,100,75,5,85,100,0,40,99,99,95,"Pre-emerge crop damage WHEAT (phytotoxicity rating) [5, 35]: 20; Post-emerge crop damage RICE (phytotoxicity rating) [8, 36]: 55; Pre-emerge crop damage CORN (phytotoxicity rating) [10, 35]: 0; Post-emerge crop damage CORN (phytotoxicity rating) [11, 36]: 10; Post-emerge crop damage SOY (phytotoxicity rating) [12, 36]: 25; Post-emerge crop damage WHEAT (phytotoxicity rating) [18, 36]: 45; Pre-emerge crop damage RICE (phytotoxicity rating) [26, 35]: 0; Post-emerge Herbicidal Activity ECC (phytotoxicity rating) [28]: 25; Post-emerge Herbicidal Activity XAS (phytotoxicity rating) [29]: 80; Pre-emerge crop damage SOY (phytotoxicity rating) [30, 35]: 35"
"Cn1nc(-c2c(F)cc3c4c2NC(=O)CN4C(=O)CO3)c(Cl)c1OC(F)F [1-25, 8-[4-Chloro-5-(difluoromethoxy)-1-methyl-1H-pyrazole-3-yl)-9-fluoro-5H-pyrazino[1,2,3-de]-1,4-benzoxazine-3,6(2H, 7H)-dione]",100,99,100,100,60,100,100,100,100,100,100,100,100,100,100,60,95,100,100,100,"Pre-emerge crop damage WHEAT (phytotoxicity rating) [5, 31]: 85; Post-emerge crop damage RICE (phytotoxicity rating) [8, 32]: 100; Pre-emerge crop damage CORN (phytotoxicity rating) [10, 33]: 99; Post-emerge crop damage CORN (phytotoxicity rating) [11, 33]: 35; Post-emerge crop damage SOY (phytotoxicity rating) [12, 34]: 100; Post-emerge crop damage WHEAT (phytotoxicity rating) [18, 31]: 60; Pre-emerge crop damage RICE (phytotoxicity rating) [26, 32]: 85; Post-emerge Herbicidal Activity ECC (phytotoxicity rating) [28]: 95; Post-emerge Herbicidal Activity XAS (phytotoxicity rating) [29]: 100; Pre-emerge crop damage SOY (phytotoxicity rating) [30, 34]: 40"
